The test system of experiment [1] is P. acnes. Conditions: 0,2 % 1,2-Decandiol alone or combined with 1 % Milchsäure, from EP 1598064 A1; cited from earlier work.
The test system of the next experiment is P.acnes. The experiment can be described thus: Suspension test: decline of P. acnes in the formulations after 1 h, 6 h and 24 h (colony count). It is filed as cell-based, Propionibacterium acnes. The note with it: for antimikrobielle Wirksamkeit gegen P.acnes: result in words, suspension test, formulations as composed. The procedure: Die antimikrobielle Wirksamkeit der erfindungsgemäßen Kombinationen gegen P. acnes wurde zum Vergleich mit verschiedenen Formulierungen untersucht. Dazu wurde in einem Suspensionstest der Rückgang der P.acnes nach 1 h, 6h und 24h beobachtet. Dazu wurden wenige Einzelkolonien einer P.acnes - Kultur in 10mL anaerobem Medium im Impedanzgerät mit dem Programm PR37NT herangezogen. Nach der Wachstumsphase von ca. 18 Stunden wird zur Kontrolle der Keimzahl die OD gemessen, die etwa zwischen 0,3 - 0,5 liegen sollte. Für den Versuch wurden 100µL der gewachsene Kolonie und 100µL autoklaviertes Wasser zu 800mg der zu prüfenden Formulierung gegeben. Die Tests wurden manuell durchgeführt. Zwischen den Abnahmen werden die Proben unter anaeroben Bedingungen (Topf) gelagert. Die Proben wurden jeweils zum Zeitpunkt 1h, 6h und 24h genommen und auf den entsprechenden Agarplatten ausplattiert. Die Platten werden unter anaeroben Bedingungen (Topf) bei 37°C bebrütet. Nach 5 Tagen wurde die Keimzahl bestimmt. Die Abbildungen 1 und 2 zeigen die ermittelten Ergebnisse. Darin umfassen die Formulierung wie folgt • A: 0,5 Gew.% Licochalcone A • B: 0,5 Gew.% Licochalcone A und 0,3 Gew.% 1,2 Decandiol • C: 0,3 Gew.% 1,2 Decandiol • D: 0,5 Gew.% Licochalcone A, 0,3 Gew.% 1,2 Decandiol und 2 Gew.% Carnitin • E: 0,5 Gew.% Licochalcone A, 0,2 Gew.% 1,2 Decandiol und 2 Gew.% Carnitin • F: 0,5 Gew.% Licochalcone A, 0,1 Gew.% 1,2 Decandiol und 2 Gew.% Carnitin • G: 0,3 Gew.%-1,2 Decandiol und 2 Gew.% Carnitin • H: 0,2 Gew.% 1,2 Decandiol und 2 Gew.% Carnitin • I: 0,1 Gew.% 1,2 Decandiol und 2 Gew.% Carnitin

Experiment [2] relates to P. acnes. Conditions: gegenüber P. acnes; cited from earlier work.

The structures appear in SMILES notation.

Regarding `CCCCCCCCC(O)CO` (stereo not shown) [1,2-Decandiol], the “antibakterielle Wirkung im Suspensionstest” value in the experiment with P. acnes [1] is on record as “so gut wie keine antibakterielle Wirkung”. Further, the “Zellzahl reduziert um Faktor” value in the experiment with P.acnes (0,3% Decandiol allein) is given as 4158. In the experiment on P.acnes, the “antimikrobielle Wirksamkeit gegen P.acnes” value is recorded as “nur eine schwache antimikrobielle Wirksamkeit”.
With `CC[C@H]1OC(=O)[C@H](C)[C@@H](O[C@H]2C[C@@](C)(OC)[C@@H](O)[C@H](C)O2)[C@H](C)[C@@H](O[C@@H]2O[C@H](C)C[C@H](N(C)C)[C@H]2O)[C@](C)(O)C[C@@H](C)C(=O)[C@H](C)[C@@H](O)[C@]1(C)O` [Erythromycin], the MHK-Werte with P. acnes [2] is under 1 pmm.
Turning to `C=CC(C)(C)c1cc(/C=C/C(=O)c2ccc(O)cc2)c(OC)cc1O` [Licochalcone A], in the experiment on P.acnes (0,5% Licochalcone A allein, nach 24h), the Reduktionsfaktor worked out at 41. Besides, in the experiment with P.acnes, the “antimikrobielle Wirksamkeit gegen P.acnes” value was “keine antimikrobielle Wirksamkeit”.
On to `CN(C)[C@@H]1C(O)=C(C(N)=O)C(=O)[C@@]2(O)C(O)=C3C(=O)c4c(O)cccc4[C@@](C)(O)[C@H]3C[C@@H]12` [Tetracyclin], for which the MHK-Werte in the experiment with P. acnes [2] is on record as under 1 pmm.

These data come from patent EP2549976B1, “SKIN-FRIENDLY ACTIVE INGREDIENT COMBINATION TO COMBAT ACNE” (Beiersdorf AG, priority 2010, dated 2011).
